{"source": "patent US11555055B2", "about": "“Peptide inhibitors of insulin-degrading enzyme” (The Regents of the University of California, priority 2017, dated 2023)", "key": {"[1]": {"tested_on": "primary murine skin fibroblasts", "assay": "Hydroxyproline secreted into the medium (collagen production and secretion)", "assay_type": "cell-based, mouse", "conditions": "P12-3A 100 μM", "procedure": "(§1) FIG. 4A-F. Effects of P12-3A on cultured skin cells. A, Insulin concentrations as a function of time in logarithmically growing primary murine skin fibroblasts in the absence or presence of P12-3A (100 μM). […] Data are mean±SEM of 4 independent replications. *P<0.05, **P<0.01. B, Proliferation of cells in the absence or presence of P12-3A (100 μM). […] C,D,E, P12-3A (100 μM) potentiates insulin-induced collagen production in skin fibroblasts. Collagen production was assessed by COL1A1 mRNA levels (C), levels of hydroxyproline secreted into the medium (D), and cell-associated mature alpha-1 type I collagen levels detected by Western blotting (E). […] Migration of HaCaT cells 48 h after induction of a scratch wound in the presence of the indicated quantities of insulin and/or P12-3A (100 μM). […]\n(§2) Insulin promotes wound healing and overall skin health by affecting a number of processes, including cell proliferation (2,3), cell migration (5,6), and the production and secretion of ECM components, particularly type I collagen (7-13). We therefore assessed the ability of P12-3A to influence these processes in cultured skin fibroblasts and keratinocytes. To that end, primary mouse skin fibroblasts were grown for 4 d in multiple concentrations of insulin in the presence or absence of P12-3A, and insulin concentration over time was monitored by ELISA. […]"}, "IDE": {"target": "T1, IDE (Homo sapiens, UniProt P14735)", "T1 construct": "made in house; host or cells: bacteria", "T1 sequence (P14735 1-1019)": "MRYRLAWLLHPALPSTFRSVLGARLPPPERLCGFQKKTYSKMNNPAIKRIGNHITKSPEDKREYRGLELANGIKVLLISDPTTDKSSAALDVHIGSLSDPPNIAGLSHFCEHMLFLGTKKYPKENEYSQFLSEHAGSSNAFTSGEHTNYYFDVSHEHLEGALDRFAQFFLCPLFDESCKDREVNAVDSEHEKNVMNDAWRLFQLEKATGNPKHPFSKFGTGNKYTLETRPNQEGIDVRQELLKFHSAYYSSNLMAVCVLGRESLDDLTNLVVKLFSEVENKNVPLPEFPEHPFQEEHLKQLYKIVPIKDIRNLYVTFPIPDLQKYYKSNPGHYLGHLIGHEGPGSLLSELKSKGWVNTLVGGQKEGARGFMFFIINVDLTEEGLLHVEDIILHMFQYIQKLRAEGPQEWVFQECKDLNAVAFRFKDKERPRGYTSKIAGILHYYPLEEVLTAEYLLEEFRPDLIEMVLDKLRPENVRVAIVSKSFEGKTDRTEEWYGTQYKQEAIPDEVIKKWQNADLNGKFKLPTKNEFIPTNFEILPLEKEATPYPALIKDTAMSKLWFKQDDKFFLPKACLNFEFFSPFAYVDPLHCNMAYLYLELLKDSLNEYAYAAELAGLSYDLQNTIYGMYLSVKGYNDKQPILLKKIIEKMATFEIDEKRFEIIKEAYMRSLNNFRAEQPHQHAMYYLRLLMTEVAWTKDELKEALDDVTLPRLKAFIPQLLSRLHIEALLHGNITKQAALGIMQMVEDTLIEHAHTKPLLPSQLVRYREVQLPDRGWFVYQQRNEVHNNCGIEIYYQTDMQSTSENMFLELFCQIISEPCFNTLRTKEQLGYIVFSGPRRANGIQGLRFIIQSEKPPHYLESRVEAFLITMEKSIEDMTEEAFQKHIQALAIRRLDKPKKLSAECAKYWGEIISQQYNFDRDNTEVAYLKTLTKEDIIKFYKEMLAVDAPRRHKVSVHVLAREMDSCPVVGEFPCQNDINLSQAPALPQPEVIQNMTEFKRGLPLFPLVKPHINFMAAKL", "assay": "IDE activity assay, FAβB (amyloid β-protein) degradation by fluorescence polarization", "assay_type": "biochemical", "conditions": "P12-3A 100 μM", "procedure": "Degradation Assays—IDE activity was quantified by monitoring the degradation of (7-methoxycoumarin-4-yl)acetic acid-[…](2,4-dinitrophenyl) (FRET1, 5 μM) (49,55), fluoresceinated and biotinylated amyloid β-protein (FAβB; 500 nM) or recombinant human insulin (50 nM) in PBS supplemented with 0.05% BSA. FRET1 degradation was measured by changes in fluorescence (λex=340 nm, λem=420 nm); FAβB degradation was monitored by fluorescence polarization (λex=488 nm, λem=525 nm), as described (56); and insulin degradation was quantified by ELISA. In vitro activity assays incorporated recombinant human IDE (1 nM) purified from bacteria (35). For quantitation of insulin degradation in primary murine skin fibroblasts, cells (1×10^5/well) were plated in 96-well plates and maintained in DMEM supplemented with 10% fetal bovine serum (FBS), 2 mM glutamine, penicillin and streptomycin. After addition of insulin (10 nM or 100 nM), samples of conditioned medium were removed daily and quickly frozen, then insulin levels were quantified in parallel by ELISA according to manufacturer's recommendations (Crystal Chem, Downers Grove, Ill., USA). […]"}, "[2]": {"tested_on": "primary murine skin fibroblasts", "assay": "Cell proliferation (CellTiter 96 AQueous)", "assay_type": "cell-based, mouse", "conditions": "100 μM P12-3A, 10 nM insulin; not statistically significant", "procedure": "as §1, §2"}}, "note": "“Also recorded” adds a separate entry of the source. Where a SMILES comes first, the peptide text is derived from it. Bridges are numbered along the chain shown (N, C = ends).", "data": [{"smiles": "CC(C)C[C@H](NC(=O)[C@H](CO)NC(=O)[C@@H](N)CCC(N)=O)C(=O)N1CCC[C@H]1C(=O)N[C@@H](Cc1c[nH]c2ccccc12)C(=O)N[C@H]1CSSC[C@@H](C(=O)N[C@H](C(=O)N[C@H](C(N)=O)[C@@H](C)O)C(C)C)NC(=O)[C@H](Cc2c[nH]cn2)NC(=O)[C@@H]2CCCN2C(=O)[C@H](Cc2ccc(O)cc2)NC1=O", "note": "[Peptide P12-3A] (H-QSLPWCYPHCVT-NH2; disulfide 6-10 (inferred))", "values": [{"measurement": "hydroxyproline levels secreted into the medium", "setting": "[1]", "value": "~4.6 times that secreted by untreated cells"}, {"measurement": "inhibition of IDE in selectivity panel", "setting": "IDE", "value": "significant inhibition"}, {"measurement": "cell proliferation", "setting": "[2]", "value": "modestly increased; also recorded: No significant differences"}]}]}
